Data from PubChem BioAssay (NCI).
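Interpolation was linear, between the two tested concentrations surrounding the appropriate level; five concentrations were tested over 48 hours in 96-well plates. GI50 is the concentration that inhibits growth by half. TGI denotes the concentration required for complete inhibition of growth.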

Tests used:
Assay in all cases: NCI anticancer screen, dose series, 48 h
[1] = tested on: 786-0 renal
[2] = tested on: A498 renal
[3] = tested on: A549 NSCLC
[4] = tested on: ACHN renal
[5] = tested on: BT-549 breast
[6] = tested on: CAKI-1 renal
[7] = tested on: CCRF-CEM leukemia
[8] = tested on: COLO 205 colon
[9] = tested on: DU-145 prostate
[10] = tested on: EKVX NSCLC
[11] = tested on: HCC-2998 colon
[12] = tested on: HCT-116 colon
[13] = tested on: HCT-15 colon
[14] = tested on: HL-60(TB) leukemia
[15] = tested on: HOP-62 NSCLC
[16] = tested on: HOP-92 NSCLC
[17] = tested on: HS 578T breast
[18] = tested on: HT29 colon
[19] = tested on: IGROV1 ovarian
[20] = tested on: K-562 leukemia
[21] = tested on: KM12 colon
[22] = tested on: LOX IMVI melanoma
[23] = tested on: M14 melanoma
[24] = tested on: MALME-3M melanoma
[25] = tested on: MCF7 breast
[26] = tested on: MDA-MB-231 breast
[27] = tested on: MDA-MB-435
[28] = tested on: MOLT-4 leukemia
[29] = tested on: NCI-H226 lung
[30] = tested on: NCI-H23 lung
[31] = tested on: NCI-H460 lung
[32] = tested on: NCI-H522 lung
[33] = tested on: NCI/ADR-RES ovarian
[34] = tested on: OVCAR-3 ovarian
[35] = tested on: OVCAR-4 ovarian
[36] = tested on: OVCAR-5 ovarian
[37] = tested on: OVCAR-8 ovarian
[38] = tested on: PC-3 prostate
[39] = tested on: RPMI-8226 leukemia
[40] = tested on: SF-295 CNS
[41] = tested on: SF-539 CNS
[42] = tested on: SK-MEL-2 melanoma
[43] = tested on: SK-MEL-28 melanoma
[44] = tested on: SK-MEL-5 melanoma
[45] = tested on: SK-OV-3 ovarian
[46] = tested on: SN12C renal
[47] = tested on: SNB-19 CNS
[48] = tested on: SNB-75 CNS
[49] = tested on: SR leukemia
[50] = tested on: SW-620 colon
[51] = tested on: T-47D breast
[52] = tested on: TK-10 renal
[53] = tested on: U251 CNS
[54] = tested on: UACC-257 melanoma
[55] = tested on: UACC-62 melanoma
[56] = tested on: UO-31 renal
[57] = tested on: RXF 393 renal
[58] = tested on: SF-268 CNS

SMILES: Clc1ccc(C(Cc2ccccc2)c2c(Cl)nc(N3CCNCC3)nc2Cl)cc1 (stereo unspecified)
- TGI [1]: 30100 nM
- TGI [2]: 24800 nM
- TGI [3]: 30400 nM
- TGI [4]: 29900 nM
- TGI [5]: 47400 nM
- TGI [6]: 18000 nM
- TGI [7]: 27200 nM
- TGI [8]: 3110 nM
- TGI [9]: 27600 nM
- TGI [10]: 32200 nM
- TGI [11]: 26000 nM
- TGI [12]: 20500 nM
- TGI [13]: 14500 nM
- TGI [14]: 10700 nM
- TGI [15]: 30200 nM
- TGI [16]: 25700 nM
- TGI [17]: 32600 nM
- TGI [18]: 6270 nM
- TGI [19]: 24200 nM
- TGI [20]: 17800 nM
- TGI [21]: 20700 nM
- TGI [22]: 10600 nM
- TGI [23]: 29700 nM
- TGI [24]: 28400 nM
- TGI [25]: 20000 nM
- TGI [26]: 26900 nM
- TGI [27]: 32000 nM
- TGI [28]: 15900 nM
- TGI [29]: 40700 nM
- TGI [30]: 36800 nM
- TGI [31]: 30200 nM
- TGI [32]: 25900 nM
- TGI [33]: 35000 nM
- TGI [34]: 28200 nM
- TGI [35]: 43000 nM
- TGI [36]: 32000 nM
- TGI [37]: 27300 nM
- TGI [38]: 28000 nM
- TGI [39]: 33700 nM
- TGI [40]: 36000 nM
- TGI [41]: 28800 nM
- TGI [42]: 33200 nM
- TGI [43]: 26600 nM
- TGI [44]: 27800 nM
- TGI [45]: 33200 nM
- TGI [46]: 28800 nM
- TGI [47]: 28600 nM
- TGI [48]: 27200 nM
- TGI [49]: 3710 nM
- TGI [50]: 27700 nM
- TGI [51]: 29600 nM
- TGI [52]: 34300 nM
- TGI [53]: 26900 nM
- TGI [54]: 34000 nM
- TGI [55]: 44000 nM
- TGI [56]: 27200 nM

SMILES: C[C@@H](CS[As](C)C)C(=O)N1CCC[C@H]1C(=O)O
- GI50 [1]: 75.2 nM
- TGI [1]: 1010 nM
- GI50 [2]: 804 nM
- TGI [2]: 9670 nM
- GI50 [3]: 1580 nM
- TGI [3]: > 100000 nM
- GI50 [4]: 113 nM
- TGI [4]: 1200 nM
- GI50 [5]: 487 nM
- TGI [5]: 2310 nM
- GI50 [6]: 97.7 nM
- TGI [6]: 409 nM
- GI50 [7]: 142 nM
- TGI [7]: 643 nM
- GI50 [8]: 156 nM
- GI50 [9]: 190 nM
- TGI [9]: 1680 nM
- GI50 [10]: 723 nM
- TGI [10]: 8530 nM
- GI50 [12]: 167 nM
- TGI [12]: > 100000 nM
- GI50 [13]: 88.8 nM
- TGI [13]: 1280 nM
- GI50 [14]: 99.4 nM
- GI50 [15]: 897 nM
- TGI [15]: 5110 nM
- GI50 [16]: 51.4 nM
- TGI [16]: 542 nM
- GI50 [17]: 255 nM
- TGI [17]: 796 nM
- GI50 [18]: 715 nM
- TGI [18]: > 100000 nM
- GI50 [19]: 439 nM
- TGI [19]: 3210 nM
- GI50 [20]: 51 nM
- TGI [20]: 1100 nM
- GI50 [21]: 1900 nM
- TGI [21]: 12500 nM
- GI50 [22]: 172 nM
- TGI [22]: 673 nM
- GI50 [23]: 105 nM
- TGI [23]: 829 nM
- GI50 [24]: 164 nM
- TGI [24]: 1150 nM
- GI50 [25]: 249 nM
- TGI [25]: 2030 nM
- GI50 [26]: 226 nM
- TGI [26]: 1350 nM
- GI50 [27]: 138 nM
- TGI [27]: 468 nM
- GI50 [28]: 93.3 nM
- TGI [28]: 3690 nM
- GI50 [29]: 364 nM
- TGI [29]: 1650 nM
- GI50 [30]: 359 nM
- TGI [30]: 2330 nM
- GI50 [31]: 1400 nM
- TGI [31]: 13700 nM
- GI50 [32]: 71.5 nM
- TGI [32]: 199 nM
- GI50 [33]: 224 nM
- TGI [33]: 581 nM
- GI50 [34]: 73.6 nM
- TGI [34]: 223 nM
- GI50 [35]: 1300 nM
- GI50 [36]: 444 nM
- TGI [36]: 1800 nM
- GI50 [37]: 299 nM
- GI50 [38]: 284 nM
- TGI [38]: 1250 nM
- GI50 [39]: 26.2 nM
- TGI [39]: 83.1 nM
- GI50 [57]: 194 nM
- TGI [57]: 2810 nM
- GI50 [58]: 788 nM
- TGI [58]: 6450 nM
- GI50 [40]: 1790 nM
- TGI [40]: 5320 nM
- GI50 [41]: 131 nM
- TGI [41]: 1410 nM
- GI50 [42]: 468 nM
- TGI [42]: 5880 nM
- GI50 [43]: 708 nM
- TGI [43]: 21800 nM
- GI50 [44]: 152 nM
- TGI [44]: 436 nM
- GI50 [45]: 625 nM
- TGI [45]: 14600 nM
- GI50 [46]: 200 nM
- TGI [46]: 1030 nM
- GI50 [47]: 3760 nM
- TGI [47]: 31200 nM
- GI50 [48]: 512 nM
- TGI [48]: 2250 nM
- GI50 [49]: 55.3 nM
- TGI [49]: 272 nM
- GI50 [50]: 250 nM
- TGI [50]: 2050 nM
- GI50 [51]: 606 nM
- TGI [51]: 5750 nM
- GI50 [52]: 268 nM
- TGI [52]: 1110 nM
- GI50 [53]: 482 nM
- TGI [53]: 2430 nM
- GI50 [54]: 1450 nM
- TGI [54]: 7800 nM
- GI50 [55]: 207 nM
- TGI [55]: 855 nM
- GI50 [56]: 92.3 nM
- TGI [56]: 800 nM
